Where two headings read alike, the source gives them in different places.
Assays:
HepG2-A16-CD81EGFP cells = assay: cells; conditions: Homo sapiens; for IC50: HepG2, read-out: Tox IC50; for inhibition at 50 µM: HepG2, read-out: Tox max inhibition (%) @ 50 uM
[1] = test system: Plasmodium berghei (Pb-Luc) exoerythrocytic-stage parasites; assay: microbe, parasite or virus in culture
[2] = HepG2, read-out: HepG2 Tox% @ 50 uM rep1
[3] = read-out: Inhibition% @ 50 uM rep1
[4] = read-out: Inhibition% @ 50 uM rep2
[5] = read-out: PbLuc IC50, dose response, 1/3 dilutions, max conc. 10 or 50 uM, unit inferred
[6] = read-out: PbLuc max inhibition (%) @ 50 uM
[7] = HepG2, read-out: HepG2 Tox% @ 50 uM rep2

Compound | cytotoxicity at 50 µM (HepG2-A16-CD81EGFP cells; [2]) [%] | inhibition at 50 µM [1, 3] [%] | inhibition at 50 µM [1, 4] [%] | IC50 (HepG2-A16-CD81EGFP cells) [µM] | inhibition at 50 µM (HepG2-A16-CD81EGFP cells) [%] | IC50 [1, 5] [µM] | inhibition at 50 µM [1, 6] [%] | cytotoxicity at 50 µM (HepG2-A16-CD81EGFP cells; [7]) [%] | IC50 ([1]; read-out: PbLuc IC50, dose response, unit inferred) [µM] | IC50 ([1]; read-out: PbLuc IC50) [µM]
Cc1cc(=O)oc2c1ccc1oc(C(=O)c3ccccc3)c(C)c12 [MMV006753] | 37 | 102 | 103 |  |  |  |  |  |  | 
CC(C)CCNCC(O)Cn1c2ccccc2c2ccccc21 (stereo not drawn) [MMV006787] | 98 | 103 | 103 | 30.3 | 97 | 9.6 | 99 |  |  | 
c1ccc2cc3c(Nc4ccc(N5CCOCC5)cc4)ccnc3cc2c1 [MMV006861] | 78 | 103 | 105 |  |  |  |  | 99 |  | 
Cc1ccc2c(C)nc(Nc3nc(C)cc(-c4ccccc4)n3)nc2c1 [MMV007041] | 37 | 103 | 103 |  |  |  |  |  |  | 
CCOc1ccc(CN2CCN(CC(O)COc3ccc(OCC(O)CN4CCN(Cc5ccc(OCC)cc5)CC4)cc3)CC2)cc1 (stereo not drawn) [MMV007092] | 98 | 103 | 104 | 41.6 | 65 | 12.4 | 99 |  |  | 
c1ccc(C2=Nc3ccccc3N=C(c3ccccc3)c3ccccc32)cc1 [MMV007113] | 22 | 94 | 95 | > 50 | 15 |  | 40 |  | > 50 | 
Cc1cc(Nc2ccc(OCc3ccccc3)cc2)nc2cc(O)ccc12 [MMV007181] | 98 | 103 | 103 |  |  |  |  |  |  | 
COc1cc(-c2nc(-c3ccc(Sc4ccccc4)cc3)c(-c3ccccc3)[nH]2)cc(OC)c1O [MMV007273] | 89 | 101 | 102 | 34.1 | 82 | 7.67 | 100 |  |  | 
Cc1ccc(F)cc1NC(=O)c1cc(Cl)ccc1Nc1ccccc1 [MMV007275] | -8 | 75 | 69 |  |  |  |  |  |  | 
O=C(NCc1ccco1)C1CCN(S(=O)(=O)c2ccc(Br)cc2)CC1 [MMV007430] | 28 | 103 | 105 |  |  |  |  | 34 |  | 
Cc1ccc(CSCc2ccc(C(=O)NC3CC3)o2)cc1 [MMV007571] | 66 | 103 | 103 |  |  |  |  | 74 |  | 
COc1ccc(C(=O)C(CCC(CNC(C)(C)C)C(=O)c2ccc(OC)cc2)CNC(C)(C)C)cc1 (stereo not drawn) [MMV007591] | 101 | 103 | 104 | 25.3 | 92 | 7.2 | 99 |  |  | 
CC(=O)NCCc1nc2ccccc2n1Cc1ccc(C(C)C)cc1 [MMV007617] | 81 | 104 | 106 |  |  |  |  | 80 |  | 
Cc1ccc(C)c(-c2csc(Nc3ccc(C)c(C)c3)n2)c1 [MMV007654] | -26 | -107 | -33 |  |  |  |  |  |  | 
COc1ccc2c(c1)OC(O)(C(F)(F)C(F)(F)F)CC2=O (stereo not drawn) [MMV007839] | 96 | 102 | 98 |  |  |  |  | 96 |  | 
Cc1ccc(Nc2nc(-c3ccccn3)cs2)cc1 [MMV007907] | 93 | 103 | 106 |  |  |  |  | 96 |  | 

Compound | cytotoxicity at 50 µM (HepG2-A16-CD81EGFP cells; [2]) [%] | inhibition at 50 µM [1, 3] [%] | inhibition at 50 µM [1, 4] [%] | IC50 (HepG2-A16-CD81EGFP cells) [µM] | inhibition at 50 µM (HepG2-A16-CD81EGFP cells) [%] | IC50 [1, 5] [µM] | inhibition at 50 µM [1, 6] [%] | cytotoxicity at 50 µM (HepG2-A16-CD81EGFP cells; [7]) [%] | IC50 ([1]; read-out: PbLuc IC50, dose response, unit inferred) [µM] | IC50 ([1]; read-out: PbLuc IC50) [µM]
O=C(O)C1Cc2c([nH]c3ccccc23)C(c2ccc(Cl)cc2Cl)N1 (stereo not drawn) [MMV008138] | 49 | 88 | 91 |  |  |  |  | 53 |  | 
COC(=O)c1ccc(C2C3=C(O)CC(c4ccc(F)cc4)CC3=Nc3ccccc3N2C(=O)c2ccccc2)cc1 (stereo not drawn) [MMV011438] | -12 | 98 | 96 | > 50 | 8 | 3.16 | 97 |  |  | 
Cc1ccc(Nc2nc(N)c3ccccc3n2)cc1Cl [MMV011522] | 97 | 100 | 99 |  |  |  |  |  |  | 
Nc1ccc(-c2nc3cc(Oc4ccc(Oc5ccc6[nH]c(-c7ccc(N)cc7)nc6c5)cc4)ccc3[nH]2)cc1 [MMV011895] | 97 | 98 | 99 | 12.8 | 100 | 6.98 | 99 |  |  | 
O=C(Nc1ccc(-c2nc3cc4ccccc4cc3[nH]2)cc1)c1cccc(Br)c1 [MMV019241] | 41 | 91 | 91 |  |  |  |  |  |  | 
Cc1sc2ncnc(Sc3nc4ccccc4[nH]3)c2c1C [MMV019266] | 31 | 98 | 102 | > 50 | 28 | 0.53 | 101 | 47 |  | 
c1ccc2c(NCCCCCCNc3c4c(nc5ccccc35)CCCC4)c3c(nc2c1)CCCC3 [MMV019555] | 100 | 104 | 104 | 14.5 | 101 |  | 100 |  |  | 1.39
COc1ccc(C2NCCc3c2[nH]c2ccccc32)cc1CN1CCN(c2ccc(F)cc2)CC1 (stereo not drawn) [MMV019690] | 101 | 103 | 103 | 10.8 | 100 | 6.28 | 99 |  |  | 
Cc1[nH]c(-c2ccc(F)cc2)cc1C(=O)NC1CCN(Cc2ccccc2)CC1 [MMV019738] | 97 | 103 | 102 |  |  |  |  | 98 |  | 
Cc1ccc(C)c(Cn2c(N3CCC(C(=O)NCc4cccs4)CC3)nc3ccccc32)c1 [MMV019741] | 98 | 103 | 104 |  |  |  |  |  |  | 
Cc1ccc(Cl)cc1N1CCN(CCCNC(=O)C2CCN(c3nc4ccccc4[nH]3)CC2)CC1 [MMV019746] | 100 | 103 | 105 |  |  |  |  | 101 |  | 
Cc1cc(C)c2nc(N3CCC(C(=O)NCCCN4CCC(N5CCCCC5)CC4)CC3)sc2c1 [MMV019780] | 98 | 101 | 101 |  |  |  |  | 98 |  | 
O=C(NC1CCN(Cc2ccccc2)CC1)c1cc(C(=O)NC2CCN(Cc3ccccc3)CC2)cc(C(=O)NC2CCN(Cc3ccccc3)CC2)c1 [MMV019881] | 101 | 104 | 104 | > 50 | 60 | 14.7 | 94 |  |  | 
Clc1cc(Br)ccc1-c1ccc(CNCC2CCNCC2)o1 [MMV019918] | 97 | 103 | 105 | 15.6 | 100 | 8.14 | 99 | 99 |  | 
O=C(NCCCN1CCC(N2CCCCC2)CC1)C1=Cc2cc(Br)ccc2OC1 [MMV019995] | 100 | 102 | 102 |  |  |  |  |  |  | 
